± gives the expanded uncertainty stated by the source.
Settings: 298.15 K; 101.33 kPa; Liquid; Vibrating tube method

Q: With `FC(F)(F)C(F)(F)C(F)(F)C(F)(F)C(F)(F)C(F)(F)C(F)(F)C(F)(F)F` [octadecafluorooctane] as the compound, how does the mass density read?
A: 1754.28 ± 0.44 kg/m3

Q: For `FC(F)(F)C(F)(F)C(F)(F)C(F)(F)C(F)(F)C(F)(F)F` [perfluorohexane], which mass density is on record?
A: 1670.07 ± 0.32 kg/m3
